Source: the NIST ThermoML archive (doi:10.1016/j.jct.2018.03.013)

Experiment: xn = mol fraction of the nth substance listed
Conditions: 100 kPa, Liquid; for speed of sound: Frequency=3 MHz, Linear variable-path acoustic interferometer; for mass density: Pycnometric method

C=C(C)C(=O)OC [methyl methacrylate] + CC#N
Conditions | mass density, 293.15 K [kg/m3] | mass density, 298.15 K [kg/m3] | mass density, 303.15 K [kg/m3] | speed of sound, 293.15 K [m/s] | speed of sound, 298.15 K [m/s] | speed of sound, 303.15 K [m/s]
x2 = 0 | 943.38 | 937.64 | 931.9 | 1200.5 | 1183.6 | 1168.5
x2 = 0.0688 | 938.34 | 932.64 | 926.94 | 1207.5 | 1190.6 | 1175.5
x2 = 0.1376 | 932.76 | 927.09 | 921.42 | 1214.3 | 1197.2 | 1182
x2 = 0.1957 | 927.6 | 921.95 | 916.3 | 1220 | 1202.7 | 1187.4
x2 = 0.2716 | 920.18 | 914.56 | 908.94 | 1227.3 | 1209.7 | 1194.1
x2 = 0.3344 | 913.41 | 907.81 | 902.21 | 1233.2 | 1215.3 | 1199.5
x2 = 0.4135 | 903.99 | 898.42 | 892.85 | 1240.5 | 1222.3 | 1206.2
x2 = 0.4916 | 893.58 | 888.04 | 882.5 | 1247.5 | 1229 | 1212.6
x2 = 0.5649 | 882.66 | 877.15 | 871.64 | 1254.2 | 1235.3 | 1218.6
x2 = 0.6386 | 870.38 | 864.91 | 859.43 | 1261 | 1241.7 | 1224.8
x2 = 0.7084 | 857.36 | 851.92 | 846.47 | 1267.7 | 1248 | 1230.8
x2 = 0.7927 | 839.5 | 834.09 | 828.68 | 1276.4 | 1256.2 | 1238.7
x2 = 0.855 | 824.53 | 819.15 | 813.77 | 1283.5 | 1263 | 1245.1
x2 = 0.9073 | 810.58 | 805.23 | 799.87 | 1290.3 | 1269.3 | 1251.2
x2 = 0.9497 | 798.21 | 792.88 | 787.55 | 1296.3 | 1275 | 1256.6
